Read-outs that look alike come from different tables or passages of the source.
Tests used:
[1] = JNT-517 plasma pharmacokinetics in healthy volunteers; format: in vivo, human; conditions: for half-life / Tmax: human, plasma, oral; for half-life: read-out: Mean T1/2 (converted); for Tmax: min, read-out: Median Tmax
Protocol: The plasma pharmacokinetic profile of JNT-517 was measured using a qualified high-performance LC-MS assay. Blood samples for PK analysis were taken before dosing, and 0.5, 1, 1.5, 2, 2.5, 3, 4, 6, 8, 10, 12, 24, 36, […], and 72 hours after dosing in the SAD study. For the MAD study, blood samples for PK analysis were taken before dosing, and 0.5, 1, 1.5, 2, 2.5, 3, 4, 6, 8, 10, 12, and 24 hours after dosing in the case of once-daily dosing or 0.5, 1, 1.5, 2, 2.5, 3, 4, 6, 8.5, 9 9.5, 10, 10.5, 11, 12, 14, 16, and 24 hours after dosing in the case of twice daily dosing. In addition, predose samples were collected throughout days 3–13. The resulting concentration-time data was evaluated using standard noncompartmental analysis methods, and PK parameters were calculated (Cmax, Tmax, T1/2, AUC0-inf, CL/F, Vd/F).
IC50 values for transport inhibition in cells overexpressing SLC6A19 and TMEM27 were calculated using a 4-parameter logistic regression in Collaborative Drug Discovery (CDD). Reported IC50 values are geometric means of 4–6 independent experiments. For postmortem intestinal transport assays, single outliers of quadruplicate replicates were excluded from the calculation if a signal value’s distance to the mean exceeded 35% of the signal average. The IC50 values of individual experiments were calculated with a 3- or 4-parameter logistic regression using GraphPad Prism 9. The reported IC50 value represents the geometric mean of n = 5 experiments from 3 individual donors. Statistical comparison of urinary Phe excretion in Pah^enu2 mice treated with vehicle or JN-170 was conducted using 1-way analysis of variance (ANOVA) with Tukey’s post hoc comparison. Statistical analysis of baseline-adjusted plasma Phe in mice treated with vehicle or JN-170 was determined by 2-way ANOVA with Dunnett’s post hoc comparison. All statistical analyses were performed using GraphPad Prism 9. For clinical studies, group sizes were not determined based on statistical power calculations. Statistical significance of pharmacodynamic results was not assessed. Values are reported as mean (urinary Phe excretion, T1/2, Cl/F), geometric mean (Cmax/D, AUC0-inf/D), or median (Tmax).

healthy volunteers = assay: Phase 1 safety and tolerability, multiple ascending dose (MAD) cohorts; conditions: for Any CTCAE Grade ≥ 3 / Any TEAE / Death / SAE / TEAE Anxiety / TEAE Contusion / TEAE Dehydration / TEAE Dizziness / TEAE Drug withdrawal headache / TEAE Dysmenorrhea / TEAE Flushing / TEAE Headache / TEAE Musculoskeletal pain / TEAE Myalgia / TEAE Nausea / TEAE Oropharyngeal pain / TEAE Rash / TEAE Skin injury / TEAE Somnolence / TEAE Swelling of eyelid / TEAE Thirst / TEAE Vascular access site pain / TEAEs leading to IP discontinuation: n = 6
Protocol: Eligible participants included males and females 18 to 55 years of age, medically healthy with no clinically notable medical history, a BMI of 18–40 kg/m^2 and total body weight > 50 kg (110 lbs), and who have been nonsmokers for at least 2 weeks prior to and throughout dosing.
In both SAD and MAD studies, safety and tolerability were assessed by AE monitoring, clinical laboratory tests (blood chemistries, hematology, coagulation, serology, and urinalysis), vital signs, 12-lead electrocardiograms, and physical examinations. Safety assessment and corresponding samples were collected on day-1 prior to dosing and days 1, 2, 3, and 8 for the SAD study or throughout the 14 days of dosing and day 21 for the MAD study.

With `NC(=O)N1CCC[C@@H](N(C(=O)NCc2ccc(OC(F)(F)F)cc2F)C2CC2)C1` [JNT-517] the “plasma exposure exceeding the in vitro IC75” value ([1]; MAD 150 mg QD) was “approximately 24 hours”, the “accumulation between days 1 and 14” value ([1]; MAD cohorts, dose levels tested) was “no accumulation was observed” and the “Geomean Cmax/D” value ([1]; SAD 10 mg, %CV 23.6) was 45.9 ng/mL/mg. For the same compound, the “Geomean AUC0-inf/D” value ([1]; SAD 10 mg, %CV 66.0) was 340 ng·h/mL/mg, the “Mean Cl/F” value ([1]; SAD 10 mg, SD 1.75) was 3.36 L/h and the “Geomean Cmax/D” value ([1]; SAD 25 mg, %CV 25.5) was 48.5 ng/mL/mg. For the same compound, the “Geomean AUC0-inf/D” value ([1]; SAD 25 mg, %CV 59.0) was 402 ng·h/mL/mg, the “Mean Cl/F” value ([1]; SAD 25 mg, SD 1.27) was 2.78 L/h and the “Geomean Cmax/D” value ([1]; SAD 50 mg, %CV 14.8) was 44.6 ng/mL/mg. The “Geomean AUC0-inf/D” value ([1]; SAD 50 mg, %CV 34.5) was 348 ng·h/mL/mg, the “Mean Cl/F” value ([1]; SAD 50 mg, SD 0.873) was 3.00 L/h and the “Geomean Cmax/D” value ([1]; SAD 100 mg, %CV 13.0) was 35.0 ng/mL/mg. The “Geomean AUC0-inf/D” value ([1]; SAD 100 mg, %CV 42.4) was 239 ng·h/mL/mg, the “Mean Cl/F” value ([1]; SAD 100 mg, SD 2.11) was 4.52 L/h and the “Geomean Cmax/D” value ([1]; SAD 170 mg, %CV 24.9) was 32.9 ng/mL/mg. The “Geomean AUC0-inf/D” value ([1]; SAD 170 mg, %CV 33.6) was 269 ng·h/mL/mg, the “Mean Cl/F” value ([1]; SAD 170 mg, SD 1.15) was 3.87 L/h and the half-life ([1]; SAD 10 mg, %CV 50.2) was 6.37 h. The Tmax ([1]; SAD 10 mg, max 0.5, 1.07) was 0.75 h, the half-life ([1]; SAD 25 mg, %CV 50.7) was 7.78 h and the Tmax ([1]; SAD 25 mg, max 0.5, 2.0) was 1 h. It also gave a half-life ([1]; SAD 50 mg, %CV 35.4) of 6.17 h, a Tmax ([1]; SAD 50 mg, max 0.5, 2.0) of 0.75 h and a half-life ([1]; SAD 100 mg, %CV 31.9) of 5.89 h. The Tmax ([1]; SAD 100 mg, max 0.5, 1.5) was 1 h, the half-life ([1]; SAD 170 mg, %CV 24.7) was 6.04 h and the Tmax ([1]; SAD 170 mg, max 0.5, 2.0) was 0.75 h. For the same compound, the “exposure above the in vitro IC75” value ([1]; single 50 mg dose) was over 12 h, the “target coverage exceeding the IC75” value ([1]; single 170 mg dose) was “approximately 24 hours” and the “Any CTCAE Grade ≥ 3” value (healthy volunteers; MAD 25 mg BID) was 0 Number (%). The “Any TEAE” value (healthy volunteers; MAD 25 mg BID) was 5 (83.3) Number (%), the Death (healthy volunteers; MAD 25 mg BID) was 0 Number (%) and the SAE (healthy volunteers; MAD 25 mg BID) was 0 Number (%). The “TEAE Anxiety” value (healthy volunteers; MAD 25 mg BID) was 0 Number (%), the “TEAE Contusion” value (healthy volunteers; MAD 25 mg BID) was 0 Number (%) and the “TEAE Dehydration” value (healthy volunteers; MAD 25 mg BID) was 0 Number (%). The “TEAE Dizziness” value (healthy volunteers; MAD 25 mg BID) was 0 Number (%), the “TEAE Drug withdrawal headache” value (healthy volunteers; MAD 25 mg BID) was 1 (16.7) Number (%) and the “TEAE Dysmenorrhea” value (healthy volunteers; MAD 25 mg BID) was 0 Number (%). The “TEAE Flushing” value (healthy volunteers; MAD 25 mg BID) was 0 Number (%), the “TEAE Headache” value (healthy volunteers; MAD 25 mg BID) was 3 (50) Number (%) and the “TEAE Musculoskeletal pain” value (healthy volunteers; MAD 25 mg BID) was 1 (16.7) Number (%). For the same compound, the “TEAE Myalgia” value (healthy volunteers; MAD 25 mg BID) was 0 Number (%), the “TEAE Nausea” value (healthy volunteers; MAD 25 mg BID) was 0 Number (%) and the “TEAE Oropharyngeal pain” value (healthy volunteers; MAD 25 mg BID) was 1 (16.7) Number (%). The “TEAE Rash” value (healthy volunteers; MAD 25 mg BID) was 0 Number (%), the “TEAE Skin injury” value (healthy volunteers; MAD 25 mg BID) was 1 (16.7) Number (%) and the “TEAE Somnolence” value (healthy volunteers; MAD 25 mg BID) was 1 (16.7) Number (%). For the same compound, the “TEAE Swelling of eyelid” value (healthy volunteers; MAD 25 mg BID) was 1 (16.7) Number (%), the “TEAE Thirst” value (healthy volunteers; MAD 25 mg BID) was 1 (16.7) Number (%) and the “TEAE Vascular access site pain” value (healthy volunteers; MAD 25 mg BID) was 0 Number (%). The “TEAEs leading to IP discontinuation” value (healthy volunteers; MAD 25 mg BID) was 1 (16.7) Number (%), the “Any CTCAE Grade ≥ 3” value (healthy volunteers; MAD 75 mg BID) was 0 Number (%) and the “Any TEAE” value (healthy volunteers; MAD 75 mg BID) was 2 (33.3) Number (%). For the same compound, the Death (healthy volunteers; MAD 75 mg BID) was 0 Number (%), the SAE (healthy volunteers; MAD 75 mg BID) was 0 Number (%) and the “TEAE Anxiety” value (healthy volunteers; MAD 75 mg BID) was 1 (16.7) Number (%). The “TEAE Contusion” value (healthy volunteers; MAD 75 mg BID) was 0 Number (%), the “TEAE Dehydration” value (healthy volunteers; MAD 75 mg BID) was 0 Number (%) and the “TEAE Dizziness” value (healthy volunteers; MAD 75 mg BID) was 1 (16.7) Number (%). The “TEAE Drug withdrawal headache” value (healthy volunteers; MAD 75 mg BID) was 0 Number (%), the “TEAE Dysmenorrhea” value (healthy volunteers; MAD 75 mg BID) was 1 (16.7) Number (%) and the “TEAE Flushing” value (healthy volunteers; MAD 75 mg BID) was 1 (16.7) Number (%). The “TEAE Headache” value (healthy volunteers; MAD 75 mg BID) was 1 (16.7) Number (%), the “TEAE Musculoskeletal pain” value (healthy volunteers; MAD 75 mg BID) was 0 Number (%) and the “TEAE Myalgia” value (healthy volunteers; MAD 75 mg BID) was 0 Number (%). The “TEAE Nausea” value (healthy volunteers; MAD 75 mg BID) was 1 (16.7) Number (%), the “TEAE Oropharyngeal pain” value (healthy volunteers; MAD 75 mg BID) was 0 Number (%) and the “TEAE Rash” value (healthy volunteers; MAD 75 mg BID) was 1 (16.7) Number (%). For the same compound, the “TEAE Skin injury” value (healthy volunteers; MAD 75 mg BID) was 0 Number (%), the “TEAE Somnolence” value (healthy volunteers; MAD 75 mg BID) was 0 Number (%) and the “TEAE Swelling of eyelid” value (healthy volunteers; MAD 75 mg BID) was 0 Number (%). The “TEAE Thirst” value (healthy volunteers; MAD 75 mg BID) was 0 Number (%), the “TEAE Vascular access site pain” value (healthy volunteers; MAD 75 mg BID) was 1 (16.7) Number (%) and the “TEAEs leading to IP discontinuation” value (healthy volunteers; MAD 75 mg BID) was 0 Number (%). For the same compound, the “Any CTCAE Grade ≥ 3” value (healthy volunteers; MAD 150 mg QD) was 0 Number (%), the “Any TEAE” value (healthy volunteers; MAD 150 mg QD) was 4 (66.7) Number (%) and the Death (healthy volunteers; MAD 150 mg QD) was 0 Number (%). For the same compound, the SAE (healthy volunteers; MAD 150 mg QD) was 0 Number (%), the “TEAE Anxiety” value (healthy volunteers; MAD 150 mg QD) was 0 Number (%) and the “TEAE Contusion” value (healthy volunteers; MAD 150 mg QD) was 1 (16.7) Number (%). The “TEAE Dehydration” value (healthy volunteers; MAD 150 mg QD) was 1 (16.7) Number (%), the “TEAE Dizziness” value (healthy volunteers; MAD 150 mg QD) was 0 Number (%) and the “TEAE Drug withdrawal headache” value (healthy volunteers; MAD 150 mg QD) was 0 Number (%). For the same compound, the “TEAE Dysmenorrhea” value (healthy volunteers; MAD 150 mg QD) was 0 Number (%), the “TEAE Flushing” value (healthy volunteers; MAD 150 mg QD) was 0 Number (%) and the “TEAE Headache” value (healthy volunteers; MAD 150 mg QD) was 2 (33.3) Number (%). The “TEAE Musculoskeletal pain” value (healthy volunteers; MAD 150 mg QD) was 0 Number (%), the “TEAE Myalgia” value (healthy volunteers; MAD 150 mg QD) was 1 (16.7) Number (%) and the “TEAE Nausea” value (healthy volunteers; MAD 150 mg QD) was 0 Number (%). For the same compound, the “TEAE Oropharyngeal pain” value (healthy volunteers; MAD 150 mg QD) was 0 Number (%), the “TEAE Rash” value (healthy volunteers; MAD 150 mg QD) was 0 Number (%) and the “TEAE Skin injury” value (healthy volunteers; MAD 150 mg QD) was 0 Number (%). The “TEAE Somnolence” value (healthy volunteers; MAD 150 mg QD) was 0 Number (%), the “TEAE Swelling of eyelid” value (healthy volunteers; MAD 150 mg QD) was 0 Number (%) and the “TEAE Thirst” value (healthy volunteers; MAD 150 mg QD) was 0 Number (%). For the same compound, the “TEAE Vascular access site pain” value (healthy volunteers; MAD 150 mg QD) was 0 Number (%), the “TEAEs leading to IP discontinuation” value (healthy volunteers; MAD 150 mg QD) was 0 Number (%) and the “incidence of AE” value (healthy volunteers; MAD cohorts, all JNT-517 doses (11 of 18)) was 61.1%.

— publication PMC11601558, “SLC6A19 inhibition facilitates urinary neutral amino acid excretion and lowers plasma phenylalanine” (JCI Insight, 2024)
